Source: paper PMC12655719, “Evaluating the Effectiveness of Reference Solvent Solubility Calculations for Binary Mixtures Based on Pure Solvent Solubility: The Case of Phenolic Acids” (Molecules, 2025)

Experiment: Solubility determination of saturated solutions (shaking 24 h at 25 °C, filtration, HPLC/UPLC-UV quantification)
Type: physicochemical
Conditions: for log(x1)exp: 1,4-dioxane + Water, code 1 (this work)
Experimental: In the case of binary mixtures, the organic solvent was mixed with water in appropriate molar fractions. Water was also used as a single-component solvent. For each system, three replicate samples were prepared.
The prepared samples were placed in an Orbital Shaker ES-20/60 incubator from Biosan (Riga, Latvia) and shaken for 24 h at 25 °C. The temperature was maintained with an accuracy of ±0.1 °C. During the equilibration process, the samples were agitated at a rate of 60 rpm while being thermostated.
Following equilibration, the samples were filtered through PTFE syringe filters with a 0.22 µm pore size. To prevent precipitation during this step, all test tubes, syringes, and filters were preheated to the corresponding temperature of the solution. Subsequently, an aliquot of the filtrate was transferred to a vial for chromatographic analysis.
Prior to injection, samples were diluted with methanol and injected into a Luna C18 column (250 × 10 mm) equipped with a guard column, both from Phenomenex (Torrance, CA, USA). The injection volume was 100 µL, and the column temperature was maintained at 30 °C. The mobile phase consisted of 0.5% acetic acid (A) and acetonitrile (B), applied with a linear gradient at a flow rate of 5 mL/min: initially 2% B; 1–7 min, 2–50% B; 7–9 min, 50% B; 9–9.5 min, 50–2% B; and 9–18 min, 2% B. The UV absorbance was monitored in the range of 210–400 nm. The chromatographic system was operated with MassLynx 4.1 software (Waters, […], USA). Quantitative analysis was performed using the TargetLynx application at 293 nm. All samples were analyzed in triplicate (technical replicates).
The system included the Acquity Binary Solvent Manager, Acquity Sample Manager, and Acquity Column Manager (Waters, Milford, CT, USA). Prior to analysis, samples were diluted with methanol, and 0.3 µL was injected. Separation was performed on a ACQUITY UPLC CSH C18 column (1.7 µm, 2.1 × 30 mm, Waters, Milford, CT, USA) maintained at 40 °C. UV detection was carried out at 293 nm using a tunable dual-wavelength UV/Vis detector (TUV, Waters, Milford, CT, USA). […] Each sample was analyzed in three technical replicates.
To calculate mole fractions of the solutes, the density of each saturated solution was determined by weighing 1 mL of the sample using an analytical balance (RADWAG AS 110.R2 PLUS; Radwag, Radom, Poland).

O=C(O)/C=C/c1ccc(O)c(O)c1 [caffeic acid, Caffeic acid]
log(x1)exp (x2* 0.00, x3* 1.00, T 25.0 °C): -4.023
log(x1)exp (x2* 0.10, x3* 0.90, T 25.0 °C): -2.614
log(x1)exp (x2* 0.20, x3* 0.80, T 25.0 °C): -1.897
log(x1)exp (x2* 0.30, x3* 0.70, T 25.0 °C): -1.603
log(x1)exp (x2* 0.40, x3* 0.60, T 25.0 °C): -1.455
x1 × 102 (mole fraction of solute) (1,4-dioxane-water, x2* = 0.0, 25 °C): 0.009 mole fraction × 102
x1 × 102 (mole fraction of solute) (1,4-dioxane-water, x2* = 0.1, 25 °C): 0.243 mole fraction × 102
x1 × 102 (mole fraction of solute) (1,4-dioxane-water, x2* = 0.2, 25 °C): 1.269 mole fraction × 102
x1 × 102 (mole fraction of solute) (1,4-dioxane-water, x2* = 0.3, 25 °C): 2.495 mole fraction × 102
x1 × 102 (mole fraction of solute) (1,4-dioxane-water, x2* = 0.4, 25 °C): 3.504 mole fraction × 102
x1 × 102 (mole fraction of solute) (1,4-dioxane-water, x2* = 0.5, 25 °C): 4.260 mole fraction × 102
x1 × 102 (mole fraction of solute) (1,4-dioxane-water, x2* = 0.6, 25 °C): 4.647 mole fraction × 102
x1 × 102 (mole fraction of solute) (1,4-dioxane-water, x2* = 0.7, 25 °C): 4.698 mole fraction × 102
x1 × 102 (mole fraction of solute) (1,4-dioxane-water, x2* = 0.8, 25 °C): 4.232 mole fraction × 102
x1 × 102 (mole fraction of solute) (1,4-dioxane-water, x2* = 0.9, 25 °C): 2.850 mole fraction × 102
x1 × 102 (mole fraction of solute) (1,4-dioxane-water, x2* = 1.0, 25 °C): 1.634 mole fraction × 102
mole fraction solubility (x1) (1,4-dioxane–water, x2* = 0.0 (pure water), 25 °C): 9.0 × 10^−5 mole fraction
mole fraction solubility (x1) (1,4-dioxane–water, x2* = 0.7, 25 °C): 4.698 × 10^−2 mole fraction
x1 × 102 (mole fraction of solute) (4-FM-water, x2* = 0.1, 25 °C): 0.785 mole fraction × 102
x1 × 102 (mole fraction of solute) (4-FM-water, x2* = 0.2, 25 °C): 2.306 mole fraction × 102
x1 × 102 (mole fraction of solute) (4-FM-water, x2* = 0.3, 25 °C): 4.043 mole fraction × 102
x1 × 102 (mole fraction of solute) (4-FM-water, x2* = 0.4, 25 °C): 6.072 mole fraction × 102
x1 × 102 (mole fraction of solute) (4-FM-water, x2* = 0.5, 25 °C): 7.935 mole fraction × 102
x1 × 102 (mole fraction of solute) (4-FM-water, x2* = 0.6, 25 °C): 10.036 mole fraction × 102
x1 × 102 (mole fraction of solute) (4-FM-water, x2* = 0.7, 25 °C): 11.977 mole fraction × 102
x1 × 102 (mole fraction of solute) (4-FM-water, x2* = 0.8, 25 °C): 13.855 mole fraction × 102
x1 × 102 (mole fraction of solute) (4-FM-water, x2* = 0.9, 25 °C): 15.930 mole fraction × 102
x1 × 102 (mole fraction of solute) (4-FM-water, x2* = 1.0, 25 °C): 17.932 mole fraction × 102
x1 × 102 (mole fraction of solute) (DMSO-water, x2* = 0.1, 25 °C): 0.209 mole fraction × 102
x1 × 102 (mole fraction of solute) (DMSO-water, x2* = 0.2, 25 °C): 1.527 mole fraction × 102
x1 × 102 (mole fraction of solute) (DMSO-water, x2* = 0.3, 25 °C): 4.718 mole fraction × 102
x1 × 102 (mole fraction of solute) (DMSO-water, x2* = 0.4, 25 °C): 11.316 mole fraction × 102
x1 × 102 (mole fraction of solute) (DMSO-water, x2* = 0.5, 25 °C): 20.824 mole fraction × 102
x1 × 102 (mole fraction of solute) (DMSO-water, x2* = 0.6, 25 °C): 28.915 mole fraction × 102
x1 × 102 (mole fraction of solute) (DMSO-water, x2* = 0.7, 25 °C): 33.598 mole fraction × 102
x1 × 102 (mole fraction of solute) (DMSO-water, x2* = 0.8, 25 °C): 34.931 mole fraction × 102
x1 × 102 (mole fraction of solute) (DMSO-water, x2* = 0.9, 25 °C): 31.904 mole fraction × 102
x1 × 102 (mole fraction of solute) (DMSO-water, x2* = 1.0, 25 °C): 22.675 mole fraction × 102
mole fraction solubility (x1) (DMSO–water, x2* = 0.8, 25 °C): 34.931 × 10^−2 mole fraction
mole fraction solubility (x1) (pure 1,4-dioxane (x2* = 1.0), 25 °C): 1.634 × 10^−2 mole fraction
mole fraction solubility (x1) (pure 4-FM (4-formylmorpholine, x2* = 1.0), 25 °C): 17.932 × 10^−2 mole fraction
mole fraction solubility (x1) (pure DMSO, 25 °C): 22.675 × 10^−2 mole fraction
